Assay: heat capacity at constant pressure per volume; xn = mol fraction of the nth substance listed
Conditions: 102.6 kPa, Liquid, DSC, Micro DSC III, x2 = 0.048

Brc1ccccc1 [bromobenzene] + CCCCCC[n+]1ccn(C)c1.O=S(=O)([N-]S(=O)(=O)C(F)(F)F)C(F)(F)F
Conditions | heat capacity [J/K/m3]
287.65 K | 1529000
287.9 K | 1529000
288.19 K | 1529000
288.46 K | 1529000
288.75 K | 1530000
289.02 K | 1531000
289.31 K | 1531000
289.59 K | 1531000
289.87 K | 1532000
290.14 K | 1533000
290.43 K | 1533000
290.74 K | 1533000
290.98 K | 1533000
291.26 K | 1534000
291.54 K | 1535000
291.82 K | 1537000
292.1 K | 1539000
292.38 K | 1541000
292.7 K | 1546000
292.8 K | 1536000
292.98 K | 1534000
293.27 K | 1533000
293.53 K | 1533000
293.82 K | 1533000
294.09 K | 1533000
294.37 K | 1533000
294.66 K | 1533000
294.94 K | 1533000
295.22 K | 1534000
295.5 K | 1534000
295.78 K | 1534000
296.06 K | 1534000
296.34 K | 1534000
296.62 K | 1534000
296.9 K | 1534000
297.18 K | 1534000
297.46 K | 1535000
297.74 K | 1535000
298.02 K | 1536000
298.3 K | 1536000
298.58 K | 1536000
298.86 K | 1536000
299.14 K | 1536000
299.42 K | 1537000
299.7 K | 1537000
299.98 K | 1537000
300.26 K | 1537000
300.54 K | 1538000
300.82 K | 1538000
301.1 K | 1538000
301.33 K | 1538000
301.6 K | 1538000
302.37 K | 1539000
302.98 K | 1539000
303.6 K | 1539000
304.21 K | 1540000
304.82 K | 1540000
305.43 K | 1541000
306.05 K | 1541000
306.66 K | 1541000
307.27 K | 1542000
307.88 K | 1542000
308.5 K | 1542000
309.11 K | 1543000
309.72 K | 1543000
310.34 K | 1544000
310.95 K | 1544000
311.56 K | 1545000
312.18 K | 1545000
312.79 K | 1545000
313.4 K | 1546000
314.01 K | 1546000
314.63 K | 1547000
315.24 K | 1547000
315.85 K | 1548000
316.46 K | 1548000
317.08 K | 1548000
317.69 K | 1549000
318.3 K | 1549000
318.92 K | 1550000
319.53 K | 1550000
320.14 K | 1551000
320.45 K | 1551000
320.75 K | 1551000
321.98 K | 1552000
322.59 K | 1552000
323.21 K | 1553000
323.82 K | 1553000
324.45 K | 1553000
325.05 K | 1554000
325.66 K | 1554000
326.27 K | 1555000
326.88 K | 1555000
327.5 K | 1556000
328.11 K | 1556000
328.72 K | 1557000
329.33 K | 1557000
329.95 K | 1558000
330.56 K | 1558000
331.02 K | 1559000
